According to patent US9701670B2, “Pyrazolyl-ureas as kinase inhibitors” (RESPIVERT LIMITED, priority 2013, dated 2017):
Values belong to the compound of their own block, whether it stands above or below them.

Tests used:
[1] = target: T1, p38 MAPKα isoform (MAPK14) (Homo sapiens (Human), UniProt Q16539); test: p38 MAPKα enzyme inhibition (FRET, Z-LYTE), Method 1; assay type: biochemical; conditions: Method 1 (Table 4a1)
[2] = target: T1, p38 MAPKα isoform (MAPK14); test: p38 MAPKα enzyme inhibition (FRET, Z-LYTE), Method 2; assay type: biochemical; conditions: Method 2, different laboratory (Table 4a2)
GSK 3α [3] = target: T2, GSK 3α (Homo sapiens (Human), UniProt P49840); test: GSK 3α enzyme inhibition (FRET, Z-LYTE), Method 2; assay type: biochemical; conditions: Method 2, different laboratory (Table 4a2); read-out: IC50 Values for Enzyme Inhibition GSK3α
Method: (§1) The enzyme inhibitory activities of compounds disclosed herein are determined by FRET using synthetic peptides labelled with both donor and acceptor fluorophores (Z-LYTE, Invitrogen Ltd., Paisley, UK).
(§2) The inhibitory activities of compounds of the invention against the GSK 3α enzyme isoform (Invitrogen), are evaluated by determining the level of activation/phosphorylation of the target peptide. The GSK3-α protein (500 ng/mL, 2.5 μL) is mixed with the test compound (2.5 μL at either 4 μg/mL, 0.4 μg/mL, 0.04 μg/mL, or 0.004 μg/mL) for 2 hr at RT. The FRET peptide (8 μM, 2.5 μL), which is a phosphorylation target for GSK3α, and ATP (40 μM, 2.5 μL) are then added to the enzyme/compound mixture and the resulting mixture incubated for 1 hr. Development reagent (protease, 5 μL) is added for 1 hr prior to detection in a fluorescence microplate reader (Varioskan® Flash, ThermoFisher Scientific).
(§3) In all cases, the site-specific protease cleaves non-phosphorylated peptide only and eliminates the FRET signal. Phosphorylation levels of each reaction are calculated using the ratio of coumarin emission (donor) over fluorescein emission (acceptor), for which high ratios indicate high phosphorylation and low ratios indicate low phosphorylation levels.

[4] = tested on: Differentiated U937 cells; test: (l) Cell viability: MTT assay; assay type: cell-based, human; conditions: 1 μg/mL
Procedure, shortened: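 Differentiated U937 cells were exposed to compound at 1 or 10 μg/mL either 4 h in 5% FCS RPMI1640 or 24 h in 10% FCS RPMI1640, then given MTT for 1 h, DMSO-solubilised and read at 550 nm. Percent viability loss versus 0.5% DMSO vehicle; apparent gains appear negative.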

Balb/c mice = test: (A) LPS-induced neutrophil accumulation in mice; assay type: in vivo, mouse; conditions: mice; for Neutrophil numbers in BAL: N = 8
Method: […] At T=0, mice are placed into an exposure chamber and exposed to LPS (7.0 mL, 0.5 mg/mL solution in PBS) for 30 min). After a further 8 hr the animals are anesthetized, their tracheas cannulated and BALF extracted by infusing and then withdrawing from their lungs 1.0 mL of PBS via the tracheal catheter. Total and differential white cell counts in the BALF samples are measured using a Neubaur haemocytometer. Cytospin smears of the BALF samples are prepared by centrifugation at 200 rpm for 5 min at RT and stained using a DiffQuik stain system (Dade Behring). Cells are counted using oil immersion microscopy. Data for neutrophil numbers in BAL are shown as mean±S.E.M. (standard error of the mean). The percentage inhibition of neutrophil accumulation is calculated for each treatment relative to vehicle treatment.

mice = test: Mouse cigarette smoke model (macrophage and neutrophil accumulation in BALF); assay type: in vivo; conditions: tobacco smoke, mice; for Cell numbers in BAL Macrophage / Cell numbers in BAL Neutrophil: mean ± SEM, N = 6
Source text: The result of treatment with compound Example (8) on macrophage and neutrophil accumulation in BALF in the mouse cigarette smoke model was investigated (Table 5).

[5] = tested on: β-catenin in d-U937 cells; test: (m) Accumulation of β catenin in d-U937 cells; assay type: cell-based, human
Procedure, shortened: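 PMA-differentiated U937 macrophage-type cells (100 ng/mL, 48–72 hr) were exposed to test compound or vehicle for 18 hr, then fixed. β-catenin was measured by cell ELISA (HRP/TMB, OD450-655) and normalised to crystal violet OD595. Signals below 15% of the standard control were designated "-ve".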

[6] = Hepatic microsomal stability; assay type: in vitro ADME, human
Method: (§4) • Microsomal stability assays were performed with incubations of test compounds at 0.1 μM (n=2, final DMSO concentration 0.25%), and carried out using pooled human, dog and rat hepatic microsomes from Xenotech (Lots 1210153, 0810143 and 1110042, respectively) at 0.25 mg protein/mL in the presence of co-factor, NADPH. The incubations were performed at 37° C. with 100 μL aliquots taken from the incubation, at 0, 2, 5, 10 and 20 minutes and reactions terminated by addition of 100 μL of acetonitrile containing carbamazepine as analytical internal standard. […] Half-life values were calculated from the relationship T1/2(min)=−0.693/λ • where λ was the slope of the Ln concentration vs time curve. • The in vitro intrinsic clearance, CIint (mL/min/kg), was calculated and scaled to hepatic extraction ratios using the following scaling parameters and formulae.
(§5) Formulae CIint(tissue clearance) mL/min/kg=[0.693/t½(min)]×[1/microsomal protein concentration mg/mL]×[mg microsomes/g liver]×[g liver/kg body weight] […] The incubations were performed at 37° C. with 100 μL samples taken from the incubation, at 0, 10, 20, 45 and 90 minutes, and reactions terminated by addition of 100 μL of acetonitrile containing carbamazepine as analytical internal standard. […] Half-life values were calculated from the relationship T1/2(min)=−0.693/λ • where λ was the slope of the Ln concentration vs time curve. • Standard compounds testosterone, midazolam and 4-methylumbelliferone are included in the assay design.

[7] = Hepatic microsomal stability; assay type: in vitro ADME; conditions: scaled from intrinsic clearance, mean of two experiments
Method: as §4, §5

[8] = Cryopreserved hepatocyte stability; assay type: in vitro ADME; conditions: scaled from intrinsic clearance, mean of two experiments
Method: as §5
CIint(Tissue Clearance) mL/min/kg=[0.693/t½(min)]×[1/hepatocyte concentration (million cells/mL)]×[million cells/g liver]×[g liver/kg body weight] CIint(Hepatic clearance) mL/min/kg=hepatic blood flow×CIint/(hepatic blood flow+CIint) Hepatic extraction ratio (Eh)=CIint(Hepatic clearance) mL/min/kg/hepatic blood flow (mL/min/kg)

GSK 3α [9] = target: T2, GSK 3α; test: GSK 3α enzyme inhibition (FRET, Z-LYTE), Method 1; assay type: biochemical; conditions: Method 1 (Table 4a1); read-out: IC50 Values for Enzyme Inhibition GSK3α
Method: as §1, §2, §3

T2 sequence (P49840 whole entry): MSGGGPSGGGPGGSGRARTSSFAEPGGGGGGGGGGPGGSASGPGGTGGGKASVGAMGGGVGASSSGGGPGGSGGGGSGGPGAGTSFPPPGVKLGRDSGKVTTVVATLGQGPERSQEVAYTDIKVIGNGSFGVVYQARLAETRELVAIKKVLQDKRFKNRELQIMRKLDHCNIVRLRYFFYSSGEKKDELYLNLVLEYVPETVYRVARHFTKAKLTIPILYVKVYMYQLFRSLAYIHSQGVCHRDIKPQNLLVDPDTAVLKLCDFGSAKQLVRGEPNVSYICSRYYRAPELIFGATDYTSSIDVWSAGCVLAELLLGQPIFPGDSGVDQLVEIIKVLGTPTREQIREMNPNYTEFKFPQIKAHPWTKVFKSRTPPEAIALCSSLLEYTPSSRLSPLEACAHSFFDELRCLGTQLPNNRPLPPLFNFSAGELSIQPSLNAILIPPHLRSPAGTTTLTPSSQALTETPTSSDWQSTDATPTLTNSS
T1 sequence (Q16539 whole entry, canonical isoform): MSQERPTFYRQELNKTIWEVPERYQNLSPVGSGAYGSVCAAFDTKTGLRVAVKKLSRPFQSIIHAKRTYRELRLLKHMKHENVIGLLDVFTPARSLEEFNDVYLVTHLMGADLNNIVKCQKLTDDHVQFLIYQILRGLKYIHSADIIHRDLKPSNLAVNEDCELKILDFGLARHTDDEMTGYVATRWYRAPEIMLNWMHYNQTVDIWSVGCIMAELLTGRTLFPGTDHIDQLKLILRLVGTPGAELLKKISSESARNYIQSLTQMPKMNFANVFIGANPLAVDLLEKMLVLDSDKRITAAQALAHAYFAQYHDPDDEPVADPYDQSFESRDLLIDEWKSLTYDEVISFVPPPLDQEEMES

IC50 [1]: 2 nM
IC50 [2]: 44 nM
IC50 (GSK 3α [3]): 13200 nM
SMILES: COc1cc(Nc2nccc(Oc3ccc(NC(=O)Nc4cc(C(C)C)nn4-c4ccc(C)cc4)c4ccccc34)n2)cc(C(=O)NCCN2CCOCC2)c1 [Example 8, 3-((4-((4-(3-(3-Isopropyl-1-(p-tolyl)-1H-pyrazol-5-yl)ureido)naphthalen-1-yl)oxy)pyrimidin-2-yl)amino)-5-methoxy-N-(2-morpholinoethyl)benzamide]
Cell viability at time point in d-U937 cells 4 h [4]: −ve (−ve and +ve indicate that the value is below and above respectively, the no significant effect threshold, defined as 30% inhibition at 1 μg/mL at the time point indicated.)
Cell viability at time point in d-U937 cells 24 h [4]: −ve (−ve and +ve indicate that the value is below and above respectively, the no significant effect threshold, defined as 30% inhibition at 1 μg/mL at the time point indicated.)
% inhibition of neutrophil numbers in BAL (Balb/c mice; 0.05 mg/mL, pre-dose time 2 hr): 40%
Neutrophil numbers in BAL (Balb/c mice; 0.05 mg/mL, pre-dose time 2 hr, mean +/− SEM): 9.6 ± 2.0 ×10^5/mL
% inhibition of neutrophil numbers in BAL (Balb/c mice; 0.2 mg/mL, pre-dose time 2 hr): 59%
Neutrophil numbers in BAL (Balb/c mice; 0.2 mg/mL, pre-dose time 2 hr, mean +/− SEM): 6.6 ± 1.4 ×10^5/mL
% inhibition of neutrophil numbers in BAL (Balb/c mice; 0.2 mg/mL, pre-dose time 12 hr): 43%
Neutrophil numbers in BAL (Balb/c mice; 0.2 mg/mL, pre-dose time 12 hr, mean +/− SEM): 9.1 ± 1.7 ×10^5/mL
% inhibition of neutrophil numbers in BAL (Balb/c mice; 0.2 mg/mL, pre-dose time 18 h): 9%
Neutrophil numbers in BAL (Balb/c mice; 0.2 mg/mL, pre-dose time 18 h, mean +/− SEM): 14.6 ± 2.5 ×10^5/mL
% inhibition of neutrophil numbers in BAL (Balb/c mice; 1.0 mg/mL, pre-dose time 2 hr): 77%
Neutrophil numbers in BAL (Balb/c mice; 1.0 mg/mL, pre-dose time 2 hr, mean +/− SEM): 3.7 ± 0.61 ×10^5/mL
% inhibition of neutrophil numbers in BAL (Balb/c mice; test substance at 0.2 mg/mL, dosed 8 hr pre-LPS challenge): 57%
Neutrophil numbers in BAL (Balb/c mice; test substance at 0.2 mg/mL, dosed 8 hr pre-LPS challenge, +/−SEM): 6.1 ± 1.2 ×10^5/mL
% inhibition Macrophage in BAL (mice; 1.6 μg/mL): 29%
% inhibition Neutrophil in BAL (mice; 1.6 μg/mL): 28%
Cell numbers in BAL Macrophage (mice; 1.6 μg/mL): 14.0 ± 0.50 ×10^4/mL
Cell numbers in BAL Neutrophil (mice; 1.6 μg/mL): 13.6 ± 0.51 ×10^4/mL
% inhibition Macrophage in BAL (mice; 8 μg/mL): 50%
% inhibition Neutrophil in BAL (mice; 8 μg/mL): 49%
Cell numbers in BAL Macrophage (mice; 8 μg/mL): 10.9 ± 0.42 ×10^4/mL
Cell numbers in BAL Neutrophil (mice; 8 μg/mL): 10.2 ± 0.33 ×10^4/mL
% inhibition Macrophage in BAL (mice; 40 μg/mL): 67%
% inhibition Neutrophil in BAL (mice; 40 μg/mL): 61%
Cell numbers in BAL Macrophage (mice; 40 μg/mL): 8.3 ± 0.38 ×10^4/mL
Cell numbers in BAL Neutrophil (mice; 40 μg/mL): 8.2 ± 0.58 ×10^4/mL
% inhibition Macrophage in BAL (mice; 200 μg/mL): 83%
% inhibition Neutrophil in BAL (mice; 200 μg/mL): 77%
Cell numbers in BAL Macrophage (mice; 200 μg/mL): 5.9 ± 0.31 ×10^4/mL
Cell numbers in BAL Neutrophil (mice; 200 μg/mL): 5.6 ± 0.39 ×10^4/mL

IC50 [2]: 437 nM
IC50 (GSK 3α [3]): 12600 nM
hepatic clearance ([6]; conclusion from Tables 9a and 9b (hepatic microsomes and hepatocytes)): high hepatic clearance
Mean hepatic extraction ratio (Eh) ([6]; human hepatic microsomes, scaled from intrinsic clearance, mean of two experiments): 0.93
Mean hepatic extraction ratio (Eh) ([7]; dog hepatic microsomes): 0.91
Mean hepatic extraction ratio (Eh) ([7]; rat hepatic microsomes): 0.77
Mean hepatic extraction ratio (Eh) ([8]; dog hepatocytes): 0.73
Mean hepatic extraction ratio (Eh) ([8]; human hepatocytes): <0.61
Mean hepatic extraction ratio (Eh) ([8]; rat hepatocytes): <0.44
SMILES: C#Cc1cc(Nc2nccc(Oc3ccc(NC(=O)Nc4cc(C(C)(C)C)nn4-c4ccc(N(C)C)cc4)c4ccccc34)n2)cc(C(=O)NCCN2CCOCC2)c1 [Example 80, 3-((4-((4-(3-(3-(tert-Butyl)-1-(4-(dimethylamino)phenyl)-1H-pyrazol-5-yl)ureido)naphthalen-1-yl)oxy)pyrimidin-2-yl)amino)-5-ethynyl-N-(2-morpholinoethyl)-benzamide]
% β-catenin induction ([5]; 1 μg/mL test compound): 14%
% β-catenin induction ([5]; 5 μg/mL test compound): 8%

IC50 [1]: 45 nM
IC50 (GSK 3α [9]): 13000 nM
SMILES: COc1cc(Nc2nccc(Oc3ccc(NC(=O)Nc4cc(C(C)C)nn4-c4ccc(C)cc4)c4ccccc34)n2)cc(C(=O)NCCO)c1 [Example 63, N-(2-hydroxyethyl)-3-((4-((4-(3-(3-isopropyl-1-(p-tolyl)-1H-pyrazol-5-yl)ureido)naphthalen-1-yl)oxy)pyrimidin-2-yl)amino)-5-methoxybenzamide]
Cell viability at time point in d-U937 cells 4 h [4]: −ve (−ve and +ve indicate that the value is below and above respectively, the no significant effect threshold, defined as 30% inhibition at 1 μg/mL at the time point indicated.)
Cell viability at time point in d-U937 cells 24 h [4]: −ve (−ve and +ve indicate that the value is below and above respectively, the no significant effect threshold, defined as 30% inhibition at 1 μg/mL at the time point indicated.)
